pKd, pKi: −log10 of the molar value.
Tests used:
[1] = system: CHIKV nsP1 guanylation activity; experiment: Guanylation assay, covalent nsP1-GTP-680 formation, SDS-PAGE fluorescence; details: for ability to inhibit nsP1 guanylation (in words): 100 μM of each GTP analog, 1 hour, Fig 4; for Average POC: mean of replicates; for Average POC / Percent of Control: 100 μM analog, Fig 4 data; for Percent of Control: single replicates, scaled guanylation
CHIKV nsP1 [2] = experiment: HTS validation potency repeatability, EC50 of GTP analogs in two independent FP runs
[3] = system: CHIKV nsP1 GTP binding site; experiment: FP competition assay, displacement of GTP-Bodipy by GTP and RNA cap analogs (apparent Ki / EC50); details: for affinity for nsP1 GTP binding site / ability to compete with GTP-Bodipy (in words): FP competition, compared with GTP; for pKi: read-out: Average Ki, apparent Ki, 500 nM nsP1, 10 nM GTP-Bodipy, 1 hour 25°C
CHIKV nsP1 [4] = experiment: FP Kd determination of GTP-Bodipy and ATP-Bodipy with purified CHIKV nsP1; details: fluorescence polarization, nsP1 titrated 3 μM to 1 nM, 1 hour 25°C

Compound	ability to inhibit nsP1 guanylation (in words) [1]	Average POC [1]	Percent of Control ([1]; 100 µM)	Geometric Mean Potency (CHIKV nsP1 [2]; first set of rows)	Geometric Mean Potency (CHIKV nsP1 [2]; second set of rows)	affinity for nsP1 GTP binding site / ability to compete with GTP-Bodipy (in words) [3]	pKi [3]	also measured
O=c1[nH]c(=O)c2ncn([C@@H]3O[C@H](COP(=O)(O)OP(=O)(O)OP(=O)(O)O)[C@@H](O)[C@H]3O)c2[nH]1 [XTP]	greatest ability to in inhibit nsP1 guanylation activity	32.3662	34.0129	5.251	5.346	slightly higher affinity compared to GTP	6.40	Percent of Control ([1]; listed as XTP2, 100 µM): 27.443; Percent of Control ([1]; listed as XTP3, 100 µM): 35.6426
Nc1nc2c(ncn2[C@H]2C[C@H](O)[C@@H](COP(=O)(O)OP(=O)(O)OP(=O)(O)O)O2)c(=O)[nH]1 [dGTP]	greatest ability to in inhibit nsP1 guanylation activity	25.7895	29.9486	5.4125	5.208	less affinity compared to the others	5.38	Percent of Control ([1]; listed as dGTP2, 100 µM): 23.146; Percent of Control ([1]; listed as dGTP3, 100 µM): 24.2738
C[n+]1cn([C@@H]2O[C@H](COP(=O)([O-])OP(=O)(O)OP(=O)(O)OC[C@H]3O[C@@H](n4cnc5c(N)ncnc54)[C@H](O)[C@@H]3O)[C@@H](O)[C@H]2O)c2nc(N)[nH]c(=O)c21 [me^7-GpppA]		75.4802		4.163	4.105		5.15	Percent of Control ([1]; listed as m7-GpppA2, 100 µM): 75.9437; Percent of Control ([1]; listed as m7-GpppA3, 100 µM): 80.9779; Percent of Control ([1]; listed as m7-GpppA, 100 µM): 69.519
Bodipy-γ-phosphate-labeled ATP analog [ATP-Bodipy]								pKd (CHIKV nsP1 [4]; 5 nM ATP-Bodipy): 5.68
Bodipy-γ-phosphate-labeled GTP analog [GTP-Bodipy]								pKd (CHIKV nsP1 [4]; 10 nM GTP-Bodipy): 7.00
